Assay results as given in patent US6902744B1, “Exendin agonist formulations and methods of administration thereof” (Amylin Pharmaceuticals, Inc., priority 1999, dated 2005).

Tested on: Sprague-Dawley rats
Test: Insulinotropic action during an intravenous glucose challenge in rats
Format: in vivo
Settings: peptide 30 pmol/kg/min i.v.; n.s. versus saline

GLP-1[7-36]NH2
increase of 60-min insulin AUC versus saline-treated rats: 20%
